The values below come from US20240368142A1, “KCNT1 INHIBITORS AND METHODS OF USE” (Praxis Precision Medicines, Inc., priority 2021, published 2024).

As usually defined, the IC50 is the concentration at which inhibition is half-maximal. The low end stands for inhibition by little substance, the high end for a need for much substance.

This test addresses T1, KCNT1 (KNa1.1, Slack) (Homo sapiens, UniProt Q5JUK3).
T1 construct: expressed in transfected cells; host or cells: HEK-TREX (tetracycline inducible cell line)
T1 sequence (Q5JUK3 1-1230): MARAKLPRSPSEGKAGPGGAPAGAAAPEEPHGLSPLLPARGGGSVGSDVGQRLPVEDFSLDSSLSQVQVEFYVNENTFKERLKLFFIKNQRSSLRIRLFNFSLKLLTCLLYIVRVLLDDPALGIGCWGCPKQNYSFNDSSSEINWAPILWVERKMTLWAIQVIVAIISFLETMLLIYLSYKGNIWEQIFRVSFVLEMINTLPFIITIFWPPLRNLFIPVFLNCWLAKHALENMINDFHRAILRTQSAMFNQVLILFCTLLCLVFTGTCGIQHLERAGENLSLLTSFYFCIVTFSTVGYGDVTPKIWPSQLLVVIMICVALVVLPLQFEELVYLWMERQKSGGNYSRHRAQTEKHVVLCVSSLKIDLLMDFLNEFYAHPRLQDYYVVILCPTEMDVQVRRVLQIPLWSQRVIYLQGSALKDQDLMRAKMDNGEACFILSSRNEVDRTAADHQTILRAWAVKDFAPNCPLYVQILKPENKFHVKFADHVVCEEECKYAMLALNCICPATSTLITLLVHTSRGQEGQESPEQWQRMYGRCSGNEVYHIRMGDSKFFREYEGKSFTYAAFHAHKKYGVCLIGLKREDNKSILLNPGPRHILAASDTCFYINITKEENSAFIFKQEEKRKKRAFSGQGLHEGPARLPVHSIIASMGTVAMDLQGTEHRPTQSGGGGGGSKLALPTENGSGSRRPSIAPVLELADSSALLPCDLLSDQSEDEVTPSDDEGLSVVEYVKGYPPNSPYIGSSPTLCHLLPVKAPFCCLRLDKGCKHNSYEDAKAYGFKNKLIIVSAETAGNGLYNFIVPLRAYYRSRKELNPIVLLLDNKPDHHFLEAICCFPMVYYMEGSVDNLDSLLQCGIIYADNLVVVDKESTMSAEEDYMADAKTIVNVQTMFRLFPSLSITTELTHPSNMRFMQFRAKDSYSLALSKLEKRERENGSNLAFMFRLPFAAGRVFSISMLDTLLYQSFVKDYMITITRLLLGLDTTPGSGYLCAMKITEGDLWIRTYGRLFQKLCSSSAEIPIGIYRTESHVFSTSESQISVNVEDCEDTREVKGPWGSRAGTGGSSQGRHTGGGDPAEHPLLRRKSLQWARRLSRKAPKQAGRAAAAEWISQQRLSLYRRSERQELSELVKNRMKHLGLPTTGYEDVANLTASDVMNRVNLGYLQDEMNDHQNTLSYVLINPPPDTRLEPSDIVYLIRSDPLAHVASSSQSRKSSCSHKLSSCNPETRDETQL
Briefly: KCNT1-WT-Basal-Patch Clamp Assay. The following applies: tetracycline inducible cell line (HEK-TREX), SyncroPatch 384PE automated patch clamp, perforated patch, holding -80 mV with step to 0 mV, room temperature. It counts as cell-based. How it is done: KCNT1-WT-Basal-Patch Clamp Assay
Inhibition of KCNT1 (KNa1.1, Slack) was evaluated using a tetracycline inducible cell line (HEK-TREX). Currents were recorded using the SyncroPatch 384PE automated, patch clamp system. Pulse generation and data collection were performed with PatchController384 V1.3.0 and DataController384 V1.2.1 (Nanion Technologies). The access resistance and apparent membrane capacitance were estimated using built-in protocols. Current were recorded in perforated patch mode (10 μM escin) from a population of cells. The cells were lifted, triturated, and resuspended at 800,000 cells/ml. The cells were allowed to recover in the cell hotel prior to experimentation. Currents were recorded at room temperature. The external solution contained the following (in mM): NaCl 105, NMDG 40, KCl 4, MgCl2 1, CaCl2 5 and HEPES 10 (pH=7.4, Osmolarity ˜300 mOsm). The extracellular solution was used as the wash, reference and compound delivery solution. The internal solution contained the following (in mM): NaCl 70, KF 70, KCl 10, EGTA 5, HEPES 5 and Escin 0.01 (pH=7.2, Osmolarity ˜295 mOsm). Escin is made at a 5 mM stock in water, aliquoted, and stored at −20° C. The compound plate was created at 2× concentrated in the extracellular solution. The compound was diluted to 1:2 when added to the recording well. The amount of DMSO in the extracellular solution was held constant at the level used for the highest tested concentration. A holding potential of −80 mV with a 100 ms step to 0 mV was used. Mean current was measured during the step to 0 mV. […] The average mean current from 3 sweeps was calculated and the % inhibition of each compound was calculated. The % Inhibition as a function of the compound concentration was fit with a Hill equation to derive IC50, slope, min and max parameters. If KCNT1 inhibition was less than 50% at the highest tested concentration or if an IC50 could not be calculated, then a percent inhibition was reported in place of the IC50. In this table, “A” indicates IC50 of less than or equal to 1 μM; “B” indicates inhibition of between 1 μM to 20 μM; and “C” indicates inhibition of greater than or equal to 20 μM.
(Patch clamp records ionic current or voltage across a cell membrane.)

As to `CC(C(=O)N(C)c1ccccc1)c1nc(-c2ccnc(C3CC3)c2)no1` (stereo not drawn) [Compound 10, -[3-(2-cyclopropyl-4-pyridyl)-1,2,4-oxadiazol-5-yl]-N-methyl-N-phenyl-propanamide], the concentration for half-maximal inhibition (IC50) was 1 to 20 µM.

As for `CC(C(=O)N1CCCCC1)c1nc(-c2ccnc(C3CC3)c2)no1` (stereo not drawn) [Compound 5, 2-(3-(2-cyclopropylpyridin-4-yl)-1,2,4-oxadiazol-5-yl)-1-(piperidin-1-yl)propan-1-one], the IC50 was in the range of 1 to 20 µM.

Turning to `CC(C(=O)Nc1ccccc1)c1nc(-c2ccnc(C3CC3)c2)no1` (stereo not drawn) [Compound 1, 2-[3-(2-cyclopropyl-4-pyridyl)-1,2,4-oxadiazol-5-yl]-N-phenyl-propanamide], the 50% inhibitory concentration (IC50) is no more than 1 µM.

Molecule `C[C@H](C(=O)N1CCCCC1)c1nc(-c2ccnc(C3CC3)c2)no1` (single isomer, unassigned) [Compound 7] showed an IC50 of no less than 20 µM.

For the molecule `CC(C(=O)N[C@H](C)c1ccccc1)c1nc(-c2ccnc(C3CC3)c2)no1` (stereo partly drawn) [Compound 12, 2-(3-(2-cyclopropylpyridin-4-yl)-1,2,4-oxadiazol-5-yl)-N—((R)-1-phenylethyl)propanamide], the 50% inhibitory concentration (IC50) is no more than 1 µM.

In the case of `C[C@@H](C(=O)N1CCCCC1)c1nc(-c2ccnc(C3CC3)c2)no1` (single isomer, unassigned) [Compound 6], the half-maximal inhibitory concentration (IC50) is 1 to 20 µM.

Molecule `CC(C(=O)N[C@@H](C)c1ccccc1)c1nc(-c2ccnc(C3CC3)c2)no1` (stereo partly drawn) [Compound 11, 2-(3-(2-cyclopropylpyridin-4-yl)-1,2,4-oxadiazol-5-yl)-N—((S)-1-phenylethyl)propanamide] had an IC50 of no more than 1 µM.

Turning to `CC(C(=O)NCc1ccccc1)c1nc(-c2ccnc(C3CC3)c2)no1` (stereo not drawn) [Compound 2, N-benzyl-2-(3-(2-cyclopropylpyridin-4-yl)-1,2,4-oxadiazol-5-yl)propanamide], the half-inhibitory concentration (IC50) is no more than 1 µM.

As for `C[C@H](C(=O)NC1CCCCC1)c1nc(-c2ccnc(C3CC3)c2)no1` (single isomer, unassigned) [Compound 4], the IC50 was no more than 1 µM.

`C[C@@H](C(=O)Nc1ccccc1)c1nc(-c2ccnc(C3CC3)c2)no1` (single isomer, unassigned) [Compound 8] displayed an IC50 of no more than 1 µM.

Regarding `C[C@@H](C(=O)NC1CCCCC1)c1nc(-c2ccnc(C3CC3)c2)no1` (single isomer, unassigned) [Compound 3], the 50% inhibitory concentration (IC50) is no more than 1 µM.

With `C[C@H](C(=O)Nc1ccccc1)c1nc(-c2ccnc(C3CC3)c2)no1` (single isomer, unassigned) [Compound 9], the IC50 was no more than 1 µM.
